Assay results taken from patent US11957683B2, “Bicyclic compounds” (Aligos Therapeutics, Inc., priority 2021, dated 2024).

What was measured:
HBV = test: HBV-DNA antiviral assay using HepG2.117 cells; type: cell-based, HBV genotype D; conditions: Hepatitis B virus, 72 h; HBV DNA inhibition, intracellular HBV DNA by qPCR, HepG2.117 cells, 3 days incubation; read-out: EC50
Experimental: (§1) The following assay procedure describes the HBV antiviral assay, using HepG2.117 cells, which carry a stably integrated genotype D HBV genome under the control of a Tet-off promoter, and intracellular HBV DNA quantification as endpoint. Cell viability is assessed in parallel by measuring the intracellular ATP content using CellTiter-Glo 2.0 (Promega).
On day 0, HepG2.117 cells (which are maintained in routine cell culture with doxycycline present in the medium at a final concentration of 1 μg/mL) are seeded in 96-well plates (white with clear bottom) at a density of 2.0×10^4 cells/well (0.1 mL/well) in medium without doxycycline to induce pgRNA transcription and subsequent formation of HBV particles. The cells are incubated at 37° C. and 5% CO2.
(§2) On day 1, medium is removed from each well, the test articles are diluted in culture medium without doxcycyline and 100 μL was added to cell culture wells (9 concentrations, 4-fold dilution). For each plate, 6 untreated (merely DMSO) wells are included. The final concentration of DMSO in the culture medium is 2%. Each plate is prepared in duplicate (one for HBV DNA extraction, one for CellTiter-Glo 2.0 measurement). The cells are incubated at 37° C. and 5% CO2 for 3 days.
(§3) On day 4, cell viability is assessed using CellTiter-Glo 2.0 and cell lysates are prepared for HBV DNA extraction and subsequent quantification by qPCR.
Medium is removed from each well and 100 μL of 0.33% NP-40 in H2O was added to each well. Plates are sealed, incubated at 4° C. for 5 mins, vortexed extensively and centrifuged briefly. Next, 35 μL of lysate is added to 65 μL QuickExtract DNA Extraction Solution (Epicentre) in a PCR plate for each well. PCR plate is incubated at 65° C. for 6 mins, 98° C. for 2 mins and finally cooled to 4° C. HBV DNA is then quantified by qPCR with HBV-specific primers and probes as specified in Table 2 using the Bio-Rad SSOAdvanced Universal Probes Supermix on a CFX96 machine (Bio-Rad). The PCR cycle program consisted of 95° C. for 3 mins, followed by 40 cycles at 95° C. for 10 sec and 60° C. for 30 sec.
A DNA standard is prepared by dilution of an IDT gBlock corresponding to the amplicon with concentrations ranging from 10^2 to 10^8 copies/input (i.e., per 4 μL) and used to generate a standard curve by plotting Cq values vs. HBV DNA standard concentration. The quantity of HBV DNA in each sample is determined by interpolating from the standard curve.
(§4) Cell viability is calculated as follows: % Cell viability=(luminescence value of test sample)/(average luminescence value of 2% DMSO control)×100%. HBV DNA inhibition was calculated as follows: 100−(HBV DNA copy number of test sample)/(average HBV DNA copy number of 2% DMSO control)×100%. No normalization to entecavir is required due to the excellent dynamic window of this assay. The CC50, EC50 and EC90 values were determined by dose-response curves fitted using non-linear regression.

[1] = Cell viability by CellTiter-Glo 2.0 (intracellular ATP) in HepG2.117 cells; type: cell-based; conditions: human, CellTiter-Glo 2.0, HepG2.117 cells, 3 days incubation
Experimental: as §1, §2, §3
Using the other plates, the cell viability is quantified by CellTiter-Glo 2.0 according to the manufacturer's manual. In brief, 100 μL of reagent solution is added to the culture plates and shaken for 2′. The plates are incubated at rt for 10 min and luminescence signal is subsequently measured on a VarioSkan Lux (ThermoFisher) plate reader.
as §4

| SMILES | EC50 (HBV) | CC50 at 3 days [1] |
| --- | --- | --- |
| C=C[C@@H](C)Nc1nc2c(c(=O)n1-c1ccc(C(=O)NC)c(Cl)c1)C[C@@H](C)N(C(=O)c1ccc(Br)c(C(F)(F)F)c1)C2 [Compound 19, 4-((R)-7-(4-bromo-3-(trifluoromethyl)benzoyl)-2-(((R)-but-3-en-2-yl)amino)-6-methyl-4-oxo-5,6,7,8-tetrahydropyrido[3,4-d]pyrimidin-3(4H)-yl)-2-chloro-N-methylbenzamide] | < 50 nM | > 500 nM |
| C=C[C@H](C)Nc1nc2c(c(=O)n1-c1cnc3c(ncn3C)n1)C[C@@H](C)N(C(=O)c1ccc(Br)c(C(F)(F)F)c1)C2 [Compound 46, (6R)-7-[4-bromo-3-(trifluoromethyl)benzoyl]-6-methyl-2-[[(1S)-1-methylallyl]amino]-3-(1-methylimidazo[4,5-b]pyrazin-5-yl)-6,8-dihydro-5H-pyrido[3,4-d]pyrimidin-4-one] | < 50 nM | > 50000 nM |
| C=C[C@H](C)Nc1nc2c(c(=O)n1-c1ccc3c(c1)ncn3C)C[C@@H](C)N(C(=O)c1ccc(Br)c(C(F)(F)F)c1)C2 [Compound 17, (R)-7-(4-bromo-3-(trifluoromethyl)benzoyl)-2-(((S)-but-3-en-2-yl)amino)-6-methyl-3-(1-methyl-1H-benzo[d]imidazol-5-yl)-5,6,7,8-tetrahydropyrido[3,4-d]pyrimidin-4(3H)-one] | < 50 nM | > 500 nM |
| C=CC(Nc1nc2c(c(=O)n1-c1ccc(C(=O)NC)cc1)C[C@@H](C)N(C(=O)c1ccc(Br)c(C(F)(F)F)c1)C2)C1CCC1 (some centres unmarked) [Compound 15] | < 50 nM | > 500 nM |
| C=C[C@H](C)Nc1nc2c(c(=O)n1-c1ccc(-c3cnn(C)c3)cn1)C[C@@H](C)N(C(=O)c1ccc(Br)c(C(F)(F)F)c1)C2 [Compound 37, (6R)-7-[4-bromo-3-(trifluoromethyl)benzoyl]-6-methyl-2-[[(1S)-1-methylallyl]amino]-3-[5-(1-methylpyrazol-4-yl)-2-pyridyl]-6,8-dihydro-5H-pyrido[3,4-d]pyrimidin-4-one] | < 50 nM | > 50000 nM |
| C=CC(Nc1nc2c(c(=O)n1-c1ccc(C(=O)NC)cc1)C[C@@H](C)N(C(=O)c1ccc(Br)c(C(F)(F)F)c1)C2)C1CC1 (some centres unmarked) [Compound 11a] | < 50 nM | > 50000 nM |
| C=CC(C)N(C)c1nc2c(c(=O)n1-c1ccc(C(=O)NC)cc1)C[C@@H](C)N(C(=O)c1ccc(Br)c(C(F)(F)F)c1)C2 (some centres unmarked) [Compound 10a] | < 50 nM | > 50000 nM |
| C=C[C@H](C)Nc1nc2c(c(=O)n1-c1cc3ncn(C)c3cc1F)C[C@@H](C)N(C(=O)c1ccc(Br)c(C(F)(F)F)c1)C2 [Compound 32a, (R)-7-(4-bromo-3-(trifluoromethyl)benzoyl)-2-(((S)-but-3-en-2-yl)amino)-3-(6-fluoro-1-methyl-1H-benzo[d]imidazol-5-yl)-6-methyl-5,6,7,8-tetrahydropyrido[3,4-d]pyrimidin-4(3H)-one] | < 50 nM | 29500 nM |
| C=C[C@@H](C)Nc1nc2c(c(=O)n1-c1ccc3c(c1)ncn3C)C[C@@H](C)N(C(=O)c1ccc(Br)c(C(F)(F)F)c1)C2 [Compound 18, (R)-7-(4-bromo-3-(trifluoromethyl)benzoyl)-2-(((R)-but-3-en-2-yl)amino)-6-methyl-3-(1-methyl-1H-benzo[d]imidazol-5-yl)-5,6,7,8-tetrahydropyrido[3,4-d]pyrimidin-4(3H)-one] | < 50 nM | > 500 nM |
| C=C[C@H](C)Nc1nc2c(c(=O)n1-c1cnc3c(c1)ncn3C)C[C@@H](C)N(C(=O)c1ccc(Br)c(C(F)(F)F)c1)C2 [Compound 26, (R)-7-(4-bromo-3-(trifluoromethyl)benzoyl)-2-(((S)-but-3-en-2-yl)amino)-6-methyl-3-(3-methyl-3H-imidazo[4,5-b]pyridin-6-yl)-5,6,7,8-tetrahydropyrido[3,4-d]pyrimidin-4(3H)-one] | < 50 nM | > 500 nM |
| CNC(=O)c1ccc(-n2c(C#CCC(C)C)nc3c(c2=O)C[C@@H](C)N(C(=O)c2ccc(Br)c(C(F)(F)F)c2)C3)cc1 [Compound 23, (R)-4-(7-(4-bromo-3-(trifluoromethyl)benzoyl)-6-methyl-2-(4-methylpent-1-yn-1-yl)-4-oxo-5,6,7,8-tetrahydropyrido[3,4-d]pyrimidin-3(4H)-yl)-N-methylbenzamide] | 50 to 500 nM | 11700 nM |
| C=C[C@H](C)Nc1nc2c(c(=O)n1-c1ccc(OC[C@@H](C)O)cn1)C[C@@H](C)N(C(=O)c1ccc(Br)c(C(F)(F)F)c1)C2 [Compound 39, (6R)-7-[4-bromo-3-(trifluoromethyl)benzoyl]-3-[5-[(2R)-2-hydroxypropoxy]-2-pyridyl]-6-methyl-2-[[(1S)-1-methylallyl]amino]-6,8-dihydro-5H-pyrido[3,4-d]pyrimidin-4-one] | < 50 nM | 28100 nM |
| C#Cc1ccc(C(=O)N2Cc3nc(N[C@@H](C)C=C)n(-c4ccc(C(=O)NC)cc4)c(=O)c3C[C@H]2C)cc1C(F)(F)F [Compound 50, 4-[(6R)-7-[4-ethynyl-3-(trifluoromethyl)benzoyl]-6-methyl-2-[[(1S)-1-methylallyl]amino]-4-oxo-6,8-dihydro-5H-pyrido[3,4-d]pyrimidin-3-yl]-N-methyl-benzamide] | < 50 nM | > 50000 nM |
| C=C[C@H](C)Nc1nc2c(c(=O)n1-c1ccc(C(=O)NC)cn1)C[C@@H](C)N(C(=O)c1ccc(Br)c(C(F)(F)F)c1)C2 [Compound 24, 6-((R)-7-(4-bromo-3-(trifluoromethyl)benzoyl)-2-(((S)-but-3-en-2-yl)amino)-6-methyl-4-oxo-5,6,7,8-tetrahydropyrido[3,4-d]pyrimidin-3(4H)-yl)-N-methylnicotinamide] | < 50 nM | > 500 nM |
| C=C[C@H](C)Nc1nc2c(c(=O)n1-c1cc(F)c3ncn(C)c3c1)C[C@@H](C)N(C(=O)c1ccc(Br)c(C(F)(F)F)c1)C2 [Compound 49, (6R)-7-[4-bromo-3-(trifluoromethyl)benzoyl]-3-(7-fluoro-3-methyl-benzimidazol-5-yl)-6-methyl-2-[[(1S)-1-methylallyl]amino]-6,8-dihydro-5H-pyrido[3,4-d]pyrimidin-4-one] | < 50 nM | 23000 nM |
| C=C[C@H](C)Nc1nc2c(c(=O)n1-c1cc(F)c3c(c1)ncn3C)C[C@@H](C)N(C(=O)c1ccc(Br)c(C(F)(F)F)c1)C2 [Compound 48, (6R)-7-[4-bromo-3-(trifluoromethyl)benzoyl]-3-(7-fluoro-1-methyl-benzimidazol-5-yl)-6-methyl-2-[[(1S)-1-methylallyl]amino]-6,8-dihydro-5H-pyrido[3,4-d]pyrimidin-4-one] | < 50 nM | 26000 nM |
| C=CCN(C)c1nc2c(c(=O)n1-c1ccc(C(=O)NC)cc1)C[C@@H](C)N(C(=O)c1ccc(Br)c(C(F)(F)F)c1)C2 [Compound 6] | < 50 nM | > 500 nM |
| C=C[C@H](C)Nc1nc2c(c(=O)n1-c1ccc3c(c1)ncn3C1CC1)C[C@@H](C)N(C(=O)c1ccc(Br)c(C(F)(F)F)c1)C2 [Compound 38, (6R)-7-[4-bromo-3-(trifluoromethyl)benzoyl]-3-(1-cyclopropylbenzimidazol-5-yl)-6-methyl-2-[[(1S)-1-methylallyl]amino]-6,8-dihydro-5H-pyrido[3,4-d]pyrimidin-4-one] | < 50 nM | 24300 nM |
| C=CC(C)(C)Nc1nc2c(c(=O)n1-c1ccc(C(=O)NC)cc1)C[C@@H](C)N(C(=O)c1ccc(Br)c(C(F)(F)F)c1)C2 [Compound 1, (R)-4-(7-(4-bromo-3-(trifluoromethyl)benzoyl)-6-methyl-2-((2-methylbut-3-en-2-yl)amino)-4-oxo-5,6,7,8-tetrahydropyrido[3,4-d]pyrimidin-3(4H)-yl)-N-methylbenzamide] | < 50 nM | > 500 nM |
